Test results as given in US20260376283A1, “A METHOD IMPLEMENTING MORPHOLOGICAL CHANGES OF EXTRACELLULAR ORGANELLE VESICLES SO AS TO EXAMINE THE TRANSPORTING ACTIVITY OF MEMBRANE TRANSPORT PROTEINS AND OTHER RELATED METHODS” (PARIS SCIENCES ET LETTRES, priority 2023, published 2026).

Columns and labels:
Assay type in all cases: biochemical
[1] = tested on: ER extracellular organelle vesicle; assay: Ca2+ internalization in ER extracellular organelle vesicle by Fluo8-AM fluorescence (Example 3); conditions: role: substrate, CaCl2 30 mOsm/L, ATP 100 μM, FIG. 5
Method: FIG. 5 represents an ER extracellular organelle vesicle which is maintained thanks to a micropipette into a HKM diluted buffer (20 mOsm/L). This extracellular organelle vesicle has been isolated thanks to an ER resident protein (KDEL), over-expressed by COS7 cells, before organelle vesicles extraction. Before organelle extraction, cells were incubated during 1 h with a fluorophore called “Fluo8-AM” to report for calcium volumic concentration in organelles thanks to green fluorescence emission.
At t=0s, CaCl2 (30 mOsm/L) and ATP (100 μM) were added. Fluorescence microscopy snaps are visualized on FIG. 5 and show calcium concentration inside the ER extracellular organelle vesicle during the experiment.

[2] = tested on: ion pump SERCA localized on Endoplasmic Reticulum vesicles; assay: Ca2+ pump transporting activity by morphological change (deflation/re-swelling) of ER extracellular organelle vesicles (Example 1)
Method: An initial HKM buffer was prepared with 50 mM Hepes (known as 2-[4-(2-hydroxyethyl)piperazin-1-yl]ethanesulfonic acid), 120 mM potassium acetate, and 1 mM MgCl2 (in Milli-Q water) at pH 7.4. Said initial HKM buffer has an osmolarity of 280±15 mOsm/L.
Then, a membrane tension is applied on cells so as to produce extracellular organelle vesicles without lysing them. At that step, the extracellular organelle vesicles are released (or produced) thanks to the lysis and the removal of the plasma membrane. The membrane tension is carried out by micro-manipulation of the cells under confocal microscope thanks to a micropipette aspiration technique. Micropipette radius is around 1 μm. Thanks to a slight aspiration, a bilayer tongue of the plasma membrane was sucked into the micropipette. The aspiration is then increased at an approximate rate of 10 mbar/min, causing a proportional increase in the bilayer surface tension. At a certain applied tension (e.g. surface tension<0.75 mN/m), the plasma membrane ruptured thanks to a pore opening in the plasma membrane and the extracellular organelle vesicles are released (or extracted).
After extraction, one or more extracellular organelle vesicles are isolated using a micropipette. The micropipettes are used to hold a vesicle during the following methods of the present invention. Before the addition of molecules (ions, sugars or drug molecules), an acquisition is launched to observe the initial size of the vesicle.
Once the acquisition is started, the extracellular organelle vesicle, held by the micropipette is passed through an aqueous solution containing CaCl2 (60 mOsm/L) and ATP (100 μM). Contacting calcium ions with said extracellular organelle vesicle increases the osmolarity of the extravesicular aqueous medium. […] This innovative process allows to examine the transporting activity of the ion pump SERCA localized on Endoplasmic Reticulum vesicles.
(§1) FIG. 1 A) represents an extracellular organelle vesicle of endoplasmic reticulum (ER) which is maintained thanks to a micropipette into a HKM diluted buffer (20 mOsm/L) as an extravesicular aqueous medium. This extracellular organelle vesicle has been isolated thanks to an ER resident protein (KDEL), over-expressed by COS7 cells, before organelle vesicles extraction.
At t=0s, CaCl2 (60 mOsm/L) and ATP (100 μM) were added. At t=20s, the ER extracellular organelle vesicle is deflated: it reached its minimum volume (Vi1) and its associated maximum fluorescence signal (Fl1).
Once the acquisition is started, the ER extracellular organelle vesicle, held by the micropipette is passed through an aqueous solution containing sucrose (60 mOsm). […] Sucrose can thus be used as a control or reference in the method of the present invention.

[3] = tested on: nucleus cell component (SERCA pump); assay: Nucleus cell component response to CaCl2 (Example 6); conditions: role: substrate, CaCl2 60 mOsm/L / 20 mOsm/L, ATP 100 μM, FIG. 8
Method: (§2) In this example, an Endoplasmic Reticulum extracellular organelle vesicle and a nucleus cell component are isolated together from a same cell with one micropipette, and visualized. ER extracellular organelle vesicle and nucleus cell component were both put in contact with CaCl2 (20 mOsm/L) and ATP (100 μM) during 5 minutes.
(§3) FIG. 8 represents Endoplasmic Reticulum extracellular organelle vesicle and nucleus cell component are maintained thanks one micropipette into a HKM diluted buffer (30 mOsm/L). The extracellular organelle vesicle and the nucleus cell component were respectively isolated thanks to ER and nucleus probes, over-expressed by COS7 cells, before organelle vesicle and nucleus extraction.
(§4) At t=0s, CaCl2 (60 mOsm/L) and ATP (100 μM) were added. Dotted line circle corresponds to the size of the endoplasmic reticulum vesicle before contacting with CaCl2.

[4] = tested on: Endoplasmic Reticulum extracellular organelle vesicle (SERCA pump); assay: SERCA specificity: ER vesicle response to CaCl2 (Example 5); conditions: role: substrate, CaCl2 30 mOsm/L, ATP 100 μM, FIG. 7
Method: (§5) In this example, an Endoplasmic Reticulum extracellular organelle vesicle and a mitochondria extracellular organelle vesicle are isolated simultaneously with micropipettes, and visualized. ER and mitochondria extracellular organelle vesicles were both put in contact with CaCl2 (30 mOsm/L) and ATP (100 μM) during one hour.
(§6) FIG. 7 represents Endoplasmic Reticulum extracellular organelle vesicle and mitochondria extracellular organelle vesicle are maintained thanks two micropipettes into a HKM diluted buffer (30 mOsm/L). These extracellular organelle vesicles were isolated thanks to ER and mitochondria resident proteins, over-expressed by COS7 cells, before organelle vesicles extraction.
(§7) At t=0s, CaCl2 (30 mOsm/L) and ATP (100 μM) were added. Dotted line circles all correspond to the size of the vesicle before contacting with CaCl2.

[5] = tested on: Ca^2+ pump of the Endoplasmic Reticulum; assay: Abnormal expression/activity of Ca2+ pump of ER by vesicle morphological change (Example 2)
Method: as §1, with “3” for “1”
At t=0s, CaCl2 (60 mOsm/L) and ATP (100 μM) were added. At t=20s, the ER extracellular organelle vesicle is deflated: it reached its minimum volume (Vi1) and its associated maximum fluorescence signal (Fi1).

[6] = tested on: mitochondria extracellular organelle vesicle; assay: SERCA specificity: mitochondria vesicle response to CaCl2 (Example 5); conditions: role: substrate, CaCl2 30 mOsm/L, ATP 100 μM, FIG. 7
Method: as §5, §6, §7

[7] = tested on: plasma membrane cell component enriched with SERCA; assay: Plasma membrane cell component enriched with SERCA, response to CaCl2 (Example 7); conditions: role: substrate, CaCl2 60 mOsm/L, ATP 100 μM, SERCA relocalized
From the text: (§8) In this example, an Endoplasmic Reticulum extracellular organelle vesicle and a plasma membrane cell component are isolated with micropipettes.
(§9) The SERCA protein is over-expressed in cell 1 on its native organelle, the endoplasmic reticulum. In cell 2, SERCA is relocalized by genetic construction on the plasma membrane cell component. This finally serves to isolate with micropipettes, one endoplasmic reticulum extracellular vesicle with SERCA extracted from cell 1 and one plasma membrane cell component enriched with SERCA deriving from cell 2.
(§10) These extracellular organelle vesicle and plasma membrane cell component were isolated thanks to ER and plasma membrane protein probes, over-expressed by COS7 cells, before organelle vesicle and plasma membrane cell component extraction.
(§11) ER extracellular vesicle and plasma membrane cell component were both put in contact with CaCl2 (60 mOsm/L) and ATP (100 μM) during 5 minutes.
(§12) At t=0s, CaCl2 (60 mOsm/L) and ATP (100 μM) were added.

[8] = tested on: Endoplasmic Reticulum extracellular organelle vesicle (SERCA pump); assay: ER vesicle response to CaCl2 compared with nucleus (Example 6); conditions: role: substrate, CaCl2 60 mOsm/L / 20 mOsm/L, ATP 100 μM, FIG. 8
Method: as §2, §3, §4

[9] = tested on: Endoplasmic Reticulum extracellular organelle vesicle (SERCA over-expressed); assay: ER vesicle with over-expressed SERCA, response to CaCl2 (Example 7); conditions: role: substrate, CaCl2 60 mOsm/L, ATP 100 μM
From the text: as §8, §9, §10, §11, §12

[10] = role: substrate, CaCl2 60 mOsm/L, ATP 100 μM, FIG. 1
[11] = role: substrate, CaCl2 60 mOsm/L, ATP 100 μM, FIG. 3

SMILES: [Ca+2].[Cl-].[Cl-] [CaCl2]
- internalization in the ER extracellular organelle vesicle [1]: internalized in the ER extracellular organelle vesicle
- Fluo8-AM fluorescence signal (calcium concentration inside vesicle) ([1]; cells incubated 1 h with Fluo8-AM): Fluorescence signal is rising after addition of CaCl2
- re-swelling process of vesicle ([2]; role: substrate, 60 mOsm/L, following minutes, CaCl2 with ATP (100 μM), sucrose as control): a re-swelling process is gradually observed
- deflation of vesicle on contacting ([2]; role: substrate, CaCl2 60 mOsm/L with ATP (100 μM), or sucrose 60 mOsm without ATP stated, vesicle internal 20 mOsm/L, COS7 ER vesicle): the vesicle deflates in a few seconds
- time at which vesicle is deflated to minimum volume (Vi1) and maximum fluorescence [2, 10]: 20 s
- time at which vesicle re-swells to final volume and fluorescence (Vf and Ff) [2, 10]: 90 s
- swelling state of vesicle at t=100s ([2]; role: substrate; CaCl2 60 mOsm/L; ATP 100 μM; FIG. 1 B)): the vesicle has almost reached its initial state of swelling
- Vf/Vi1 and Vf/Vi versus reference ratio (transporting activity of SERCA) ([2]; role: substrate, sucrose as reference compound, FIGS. 1 and 2): Vf/Vi1>Vf,ref/Vi1,ref, and Vf/Vi>Vf,ref/Vi,ref
- nucleus cell component response 5 min after contacting [3]: has deflated with no re-swelling
- ER vesicle volume 1h after contacting [4]: exhibits the same volume as its initial one
- time at which vesicle is deflated to minimum volume (Vi1) and maximum fluorescence (Fi1) [5, 11]: 20 s
- time at which vesicle re-swells to final volume and fluorescence (Vf and Ff) [5, 11]: 90 s
- vesicle volume at t=300s versus initial state ([5]; role: substrate; CaCl2 60 mOsm/L; ATP 100 μM; FIG. 3 B)): reached a higher volume than the initial state
- mitochondria vesicle volume 1h after contacting [6]: has deflated
- plasma membrane cell component response 5 min after contacting [7]: has deflated
- ER vesicle volume 5 min after contacting [8]: exhibits a bigger volume as its initial one
- ER vesicle volume 5 min after contacting [9]: exhibits a bigger volume as its initial one
